Laboratory results: the NIST ThermoML archive (doi:10.1016/j.fluid.2018.04.016)
± gives the expanded uncertainty stated by the source.

Assay: refractive index (Na D-line) (dimensionless)
Conditions: 101.33 kPa, Liquid, Standard Abbe refractometry

Structure (SMILES) | refractive index (293.15 K) | refractive index (314.15 K)
O=Cc1ccco1 [2-furaldehyde] | 1.5264 ± 0.002 | 
COc1ccccc1O [2-methoxyphenol] | 1.5441 ± 0.002 | 
Oc1ccccc1 [phenol] |  | 1.5405 ± 0.002
Cc1ccccc1 [toluene] | 1.4969 ± 0.002 | 

More lines, now with the values ahead:

refractive index (293.15 K) | refractive index (314.15 K) | Structure (SMILES)
1.3779 ± 0.002 |  | CC(=O)OC(C)C [1-methylethyl ethanoate]
1.4262 ± 0.0023 |  | CC(=O)CO [acetol]
1.3293 ± 0.002 |  | CO [methanol]
1.3644 ± 0.002 |  | CCC=O [propanal]
